# Data taken from ChEMBL document CHEMBL3885861, “Open TG-GATES”.
# Species on record: Rattus norvegicus
# Assay: Open TG-GATES - Regimen: Daily Repeat
# Type: toxicity, organism-based, Sprague-Dawley
# Set-up: regimen Daily Repeat, gender Male, age 6 weeks
# Settings: in vivo, po, route gavage; for Eos / Fbg / Hb / Ht / Lym / MCH / MCHC / MCV / Mono / PT / Plat / RBC / Ret / WBC / APTT / Bas: tissue Blood; for KIDNEY_L / KIDNEY_R / KIDNEY_TOTAL: tissue Kidney; for ALP / ALT / AST / BUN / CRE / DBIL / GLC / IP / K / LDH / Na / PL / RALB / TBIL / TC / TG / TP / gamma-GTP / Ca: tissue Plasma
# [1] = 60 mg/kg, 72 h, dose level Middle, time 3 day
# [2] = 60 mg/kg, […], dose level Middle, time 7 day
# [3] = 60 mg/kg, […], dose level Middle, time 14 day
# [4] = 60 mg/kg, […], dose level Middle, time 28 day
# [5] = 200 mg/kg, 72 h, dose level High, time 3 day
# [6] = 200 mg/kg, […], dose level High, time 7 day
# [7] = 200 mg/kg, […], dose level High, time 14 day
# [8] = 200 mg/kg, […], dose level High, time 28 day
smiles,measurement,setting,value
CC(C)Cc1ccc(C(C)C(=O)O)cc1 (stereo not given) [IBUPROFEN],Eos,[1],0.8%
same,Fbg,[1],340.8 mg/dL
same,Hb,[1],13.2 g/dL
same,Ht,[1],39%
same,Lym,[1],73.8%
same,MCH,[1],21 pg
same,MCHC,[1],33.9%
same,MCV,[1],61.9 fL
same,Mono,[1],2.6%
same,PT,[1],16 s
same,Plat,[1],115.2 x10_4/uL
same,RBC,[1],629.8 x10_4/ul
same,Ret,[1],6.7%
same,WBC,[1],115.1 x10_2/uL
same,KIDNEY_L,[1],0.9 g
same,KIDNEY_R,[1],1 g
same,KIDNEY_TOTAL,[1],1.9 g
same,ALP,[1],1603.6 IU/L
same,ALT,[1],45 IU/L
same,AST,[1],80.4 IU/L
same,BUN,[1],17.8 mg/dL
same,CRE,[1],0.2 mg/dL
same,DBIL,[1],0 mg/dL
same,GLC,[1],184.6 mg/dL
same,IP,[1],7.2 mg/dL
same,K,[1],4.4 meq/L
same,LDH,[1],237 IU/L
same,Na,[1],141.4 meq/L
same,PL,[1],138.4 mg/dL
same,RALB,[1],2.9 g/dL
same,TBIL,[1],0.002 mg/dL
same,TC,[1],73.4 mg/dL
same,TG,[1],130.8 mg/dL
same,TP,[1],5.4 g/dL
same,gamma-GTP,[1],1.4 IU/L
same,TERMINAL_BW,[2],253.3 g
same,TERMINAL_BW,[3],297.5 g
same,TERMINAL_BW,[4],379.8 g
same,APTT,[2],20.6 s
same,Bas,[2],0%
same,Eos,[2],1%
same,Fbg,[2],313.2 mg/dL
same,Hb,[2],12.9 g/dL
same,Ht,[2],37.4%
same,Lym,[2],68.6%
same,MCH,[2],21.3 pg
same,MCHC,[2],34.4%
same,MCV,[2],62 fL
same,Mono,[2],3%
same,PT,[2],15.8 s
same,Plat,[2],132.1 x10_4/uL
same,RBC,[2],605 x10_4/ul
same,Ret,[2],8.2%
same,WBC,[2],133.5 x10_2/uL
same,APTT,[3],23.6 s
same,Bas,[3],0%
same,Eos,[3],1%
same,Fbg,[3],326.2 mg/dL
same,Ht,[3],41%
same,Lym,[3],75.8%
same,MCHC,[3],33.9%
same,MCV,[3],61.4 fL
same,Mono,[3],2.8%
same,PT,[3],16.1 s
same,RBC,[3],670.4 x10_4/ul
same,Ret,[3],5.7%
same,WBC,[3],126.7 x10_2/uL
same,APTT,[4],24.2 s
same,Bas,[4],0%
same,Eos,[4],1.8%
same,Fbg,[4],333 mg/dL
same,Hb,[4],14.8 g/dL
same,Ht,[4],43.5%
same,Lym,[4],75.2%
same,MCH,[4],19 pg
same,MCHC,[4],34%
same,MCV,[4],56 fL
same,Mono,[4],1.8%
same,Plat,[4],102 x10_4/uL
same,RBC,[4],777.2 x10_4/ul
same,Ret,[4],2.8%
same,WBC,[4],93.9 x10_2/uL
same,KIDNEY_L,[2],1.1 g
same,KIDNEY_R,[2],1.1 g
same,KIDNEY_TOTAL,[2],2.1 g
same,KIDNEY_L,[3],1.2 g
same,KIDNEY_R,[3],1.2 g
same,KIDNEY_TOTAL,[3],2.4 g
same,KIDNEY_L,[4],1.3 g
same,KIDNEY_R,[4],1.4 g
same,KIDNEY_TOTAL,[4],2.7 g
same,ALP,[2],1376 IU/L
same,ALT,[2],44.2 IU/L
same,AST,[2],78 IU/L
same,BUN,[2],18.6 mg/dL
same,CRE,[2],0.2 mg/dL
same,DBIL,[2],0 mg/dL
same,GLC,[2],188.4 mg/dL
same,IP,[2],7.3 mg/dL
same,K,[2],4 meq/L
same,LDH,[2],187.6 IU/L
same,Na,[2],139.2 meq/L
same,PL,[2],154.4 mg/dL
same,RALB,[2],3 g/dL
same,TBIL,[2],0.004 mg/dL
same,TC,[2],75.6 mg/dL
same,TG,[2],136.4 mg/dL
same,TP,[2],5.4 g/dL
same,gamma-GTP,[2],2.4 IU/L
same,ALP,[3],1198.6 IU/L
same,ALT,[3],41.2 IU/L
same,AST,[3],69.2 IU/L
same,CRE,[3],0.2 mg/dL
same,DBIL,[3],0 mg/dL
same,GLC,[3],189.4 mg/dL
same,IP,[3],8.1 mg/dL
same,K,[3],4.1 meq/L
same,LDH,[3],147.6 IU/L
same,Na,[3],141 meq/L
same,PL,[3],154 mg/dL
same,RALB,[3],3 g/dL
same,TBIL,[3],0.004 mg/dL
same,TC,[3],76.6 mg/dL
same,TG,[3],139 mg/dL
same,TP,[3],5.6 g/dL
same,gamma-GTP,[3],2.2 IU/L
same,ALP,[4],1187.4 IU/L
same,ALT,[4],40.8 IU/L
same,AST,[4],67.8 IU/L
same,BUN,[4],20 mg/dL
same,CRE,[4],0.2 mg/dL
same,Ca,[4],10.4 mg/dL
same,DBIL,[4],0 mg/dL
same,GLC,[4],186.2 mg/dL
same,IP,[4],6.7 mg/dL
same,K,[4],3.9 meq/L
same,LDH,[4],150.6 IU/L
same,Na,[4],142.4 meq/L
same,PL,[4],147 mg/dL
same,RALB,[4],3.2 g/dL
same,TBIL,[4],0.002 mg/dL
same,TC,[4],71.8 mg/dL
same,TG,[4],139 mg/dL
same,TP,[4],6 g/dL
same,gamma-GTP,[4],2.6 IU/L
same,TERMINAL_BW,[5],206.3 g
same,APTT,[5],19.6 s
same,Bas,[5],0%
same,Eos,[5],1%
same,Fbg,[5],465.4 mg/dL
same,Hb,[5],9.9 g/dL
same,Ht,[5],29.9%
same,Lym,[5],66.2%
same,MCH,[5],21.1 pg
same,MCHC,[5],33.2%
same,MCV,[5],63.7 fL
same,Mono,[5],4.8%
same,PT,[5],15.1 s
same,Plat,[5],111.5 x10_4/uL
same,RBC,[5],472.2 x10_4/ul
same,Ret,[5],11%
same,WBC,[5],175.1 x10_2/uL
same,KIDNEY_L,[5],0.9 g
same,KIDNEY_R,[5],1 g
same,KIDNEY_TOTAL,[5],1.9 g
same,ALP,[5],841.6 IU/L
same,ALT,[5],34.4 IU/L
same,AST,[5],59.4 IU/L
same,BUN,[5],16.2 mg/dL
same,CRE,[5],0.1 mg/dL
same,DBIL,[5],0 mg/dL
same,GLC,[5],171 mg/dL
same,IP,[5],7.9 mg/dL
same,K,[5],4.5 meq/L
same,LDH,[5],122.6 IU/L
same,Na,[5],140.8 meq/L
same,PL,[5],147.2 mg/dL
same,RALB,[5],2.4 g/dL
same,TBIL,[5],0.004 mg/dL
same,TC,[5],86 mg/dL
same,TG,[5],116.2 mg/dL
same,TP,[5],4.8 g/dL
same,gamma-GTP,[5],1.6 IU/L
same,TERMINAL_BW,[6],228.5 g
same,TERMINAL_BW,[7],217 g
same,TERMINAL_BW,[8],319 g
same,APTT,[6],20.3 s
same,Bas,[6],0%
same,Eos,[6],1.4%
same,Fbg,[6],360.2 mg/dL
same,Hb,[6],9.5 g/dL
same,Ht,[6],29.8%
same,Lym,[6],65.6%
same,MCH,[6],21.1 pg
same,MCV,[6],66.4 fL
same,Mono,[6],3.6%
same,PT,[6],16.4 s
same,Plat,[6],198 x10_4/uL
same,RBC,[6],450 x10_4/ul
same,Ret,[6],20.9%
same,WBC,[6],213.7 x10_2/uL
same,APTT,[7],18.9 s
same,Bas,[7],0%
same,Eos,[7],1.2%
same,Fbg,[7],455.2 mg/dL
same,Hb,[7],6.4 g/dL
same,Ht,[7],23.2%
same,Lym,[7],56.6%
same,MCH,[7],17.8 pg
same,MCHC,[7],27.3%
same,MCV,[7],65.3 fL
same,Mono,[7],5%
same,PT,[7],16.5 s
same,Plat,[7],274.3 x10_4/uL
same,RBC,[7],354.6 x10_4/ul
same,Ret,[7],36.9%
same,WBC,[7],225.9 x10_2/uL
same,APTT,[8],19.1 s
same,Bas,[8],0%
same,Eos,[8],2.2%
same,Fbg,[8],434.8 mg/dL
same,Hb,[8],7.6 g/dL
same,Lym,[8],48.8%
same,MCH,[8],17.5 pg
same,MCHC,[8],28%
same,MCV,[8],62.7 fL
same,Mono,[8],3%
same,PT,[8],16.6 s
same,Plat,[8],195.7 x10_4/uL
same,RBC,[8],433.5 x10_4/ul
same,WBC,[8],190.5 x10_2/uL
same,KIDNEY_L,[6],1 g
same,KIDNEY_R,[6],1 g
same,KIDNEY_TOTAL,[6],2.1 g
same,KIDNEY_L,[7],1 g
same,KIDNEY_R,[7],1.1 g
same,KIDNEY_TOTAL,[7],2.1 g
same,KIDNEY_L,[8],1.4 g
same,KIDNEY_R,[8],1.4 g
same,KIDNEY_TOTAL,[8],2.8 g
same,ALP,[6],793 IU/L
same,AST,[6],63 IU/L
same,BUN,[6],18.6 mg/dL
same,CRE,[6],0.2 mg/dL
same,DBIL,[6],0 mg/dL
same,GLC,[6],179.6 mg/dL
same,IP,[6],7.8 mg/dL
same,K,[6],4.3 meq/L
same,LDH,[6],145 IU/L
same,Na,[6],140.4 meq/L
same,PL,[6],161.6 mg/dL
same,RALB,[6],2.7 g/dL
same,TBIL,[6],0.002 mg/dL
same,TC,[6],84 mg/dL
same,TG,[6],148.6 mg/dL
same,TP,[6],5.1 g/dL
same,gamma-GTP,[6],2 IU/L
same,ALP,[7],502.2 IU/L
same,ALT,[7],25.6 IU/L
same,AST,[7],55.2 IU/L
same,BUN,[7],15.4 mg/dL
same,CRE,[7],0.2 mg/dL
same,Ca,[7],10.2 mg/dL
same,DBIL,[7],0 mg/dL
same,GLC,[7],159.6 mg/dL
same,IP,[7],8.4 mg/dL
same,K,[7],4.4 meq/L
same,LDH,[7],145.8 IU/L
same,Na,[7],140.4 meq/L
same,PL,[7],167.4 mg/dL
same,RALB,[7],2.2 g/dL
same,TBIL,[7],0.004 mg/dL
same,TC,[7],81.2 mg/dL
same,TG,[7],239.2 mg/dL
same,TP,[7],4.8 g/dL
same,gamma-GTP,[7],2.6 IU/L
same,ALP,[8],493.2 IU/L
same,ALT,[8],30 IU/L
same,AST,[8],64 IU/L
same,BUN,[8],18 mg/dL
same,CRE,[8],0.2 mg/dL
same,Ca,[8],10.4 mg/dL
same,DBIL,[8],0 mg/dL
same,GLC,[8],164.2 mg/dL
same,IP,[8],7 mg/dL
same,K,[8],4.2 meq/L
same,LDH,[8],158.8 IU/L
same,Na,[8],141.2 meq/L
same,PL,[8],191.5 mg/dL
same,RALB,[8],2.4 g/dL
same,TBIL,[8],0 mg/dL
same,TC,[8],95 mg/dL
same,TG,[8],283.8 mg/dL
same,TP,[8],5.1 g/dL
same,gamma-GTP,[8],4.2 IU/L
